Measured values reported in patent US11173151B2, “Substituted triazole derivatives and uses thereof” (BAYER AKTIENGESELLSCHAFT, priority 2017, dated 2021).

How the values were obtained:
human V1a receptor = biological target: T1, human V1a receptor (Homo sapiens, UniProt P37288); experiment: Cellular in vitro assay for determining vasopressin receptor activity, V1a receptor cell line (CHO, aequorin luminescence); format: cell-based; conditions: for IC50: CHO cell line transfected with human V1a receptor, [Arg]-vasopressin at EC50 concentration, read-out: IC50 hV1a; for ratio IC50 hV2/hV1a: selectivity ratio IC50 hV2 / IC50 hV1a
T1 construct: expressed in transfected cells; host or cells: CHO K1 (ATCC), also stably transfected with a modified aequorin
Protocol: (§1) B-1. Cellular In Vitro Assay for Determining Vasopressin Receptor Activity
(§2) The identification of agonists and antagonists of the V1a and V2 vasopressin receptors from humans, rats and dogs as well as the quantification of the activity of the compounds of the invention is carried out using recombinant cell lines. These cell lines originally derive from a hamster's ovary epithelial cell (Chinese Hamster Ovary, CHO K1, ATCC: American Type Culture Collection, Manassas, Va. 20108, USA). The test cell lines constitutively express the human, rat or dog V1a or V2 receptors. In case of the Gαq-coupled V1a receptors, cells are also stably transfected with a modified form of the calcium-sensitive photoproteins aequorin (human and rat V1a) or obelin (dog V1a), which, after reconstitution with the cofactor coelenterazine, emit light when there are increases in free calcium concentrations [Rizzuto R, Simpson A W, Brini M, Pozzan T, Nature 358, 325-327 (1992); Illarionov B A, Bondar V S, Illarionova V A, Vysotski E S, Gene 153 (2), 273-274 (1995)]. The resulting vasopressin receptor cells react to stimulation of the recombinantly expressed V1a receptors by intracellular release of calcium ions, which can be quantified by the resulting photoprotein luminescence. The Gs-coupled V2 receptors are stably transfected into cell lines expressing the gene for firefly luciferase under control of a CRE-responsible promoter. Activation of V2 receptors induces the activation of the CRE-responsive promoter via cAMP increase, thereby inducing the expression of firefly luciferase. The light emitted by photoproteins of V1a cell lines as well as the light emitted by firefly luciferase of V2 cell lines corresponds to the activation or inhibition of the respective vasopressin receptor. The bioluminescence of the cell lines is detected using a suitable luminometer [Milligan G, Marshall F, Rees S, Trends in Pharmacological Sciences 17, 235-237 (1996)].
Vasopressin V1a Receptor Cell Lines:
On the day before the assay, the cells are plated out in culture medium (DMEM/F12, 2% FCS, 2 mM glutamine, 10 mM HEPES, 5 μg/ml coelenterazine) in 384-well microtiter plates and kept in a cell incubator (96% humidity, 5% v/v CO2, 37° C.). On the day of the assay, test compounds in various concentrations are placed for 10 minutes in the wells of the microtiter plate before the agonist [Arg]-vasopressin at EC50 concentration is added. The resulting light signal is measured immediately in a luminometer.
(§3) Table 1A below lists individual IC50 values for the compounds of the invention (including racemic mixtures as well as separated enantiomers) that were obtained from cell lines transfected with the human V1a or V2 receptor: […]

human V2 receptor = biological target: T2, human V2 receptor (Homo sapiens, UniProt P30518); experiment: Cellular in vitro assay for determining vasopressin receptor activity, V2 receptor cell line (CHO, CRE-luciferase); format: cell-based; conditions: CHO cell line transfected with human V2 receptor; [Arg8]-vasopressin at EC50 concentration, 3 hours; read-out: IC50 hV2
T2 construct: expressed in transfected cells; host or cells: CHO K1 (ATCC) expressing firefly luciferase under a CRE-responsive promoter
Protocol: as §1, §2
Vasopressin V2 Receptor Cell Lines:
On the day before the assay, the cells are plated out in culture medium (DMEM/F12, 2% FCS, 2 mM glutamine, 10 mM HEPES) in 384-well microtiter plates and kept in a cell incubator (96% humidity, 5% v/v CO2, 37° C.). On the day of the assay, test compounds in various concentrations and the agonist [Arg^8]-vasopressin at EC50 concentration are added together to the wells, and plates are incubated for 3 hours in a cell incubator. Upon addition of the cell lysis reagent Triton™ and the substrate luciferin, luminescence of firefly luciferase is measured in a luminometer.
as §3

T1 sequence (P37288 whole entry): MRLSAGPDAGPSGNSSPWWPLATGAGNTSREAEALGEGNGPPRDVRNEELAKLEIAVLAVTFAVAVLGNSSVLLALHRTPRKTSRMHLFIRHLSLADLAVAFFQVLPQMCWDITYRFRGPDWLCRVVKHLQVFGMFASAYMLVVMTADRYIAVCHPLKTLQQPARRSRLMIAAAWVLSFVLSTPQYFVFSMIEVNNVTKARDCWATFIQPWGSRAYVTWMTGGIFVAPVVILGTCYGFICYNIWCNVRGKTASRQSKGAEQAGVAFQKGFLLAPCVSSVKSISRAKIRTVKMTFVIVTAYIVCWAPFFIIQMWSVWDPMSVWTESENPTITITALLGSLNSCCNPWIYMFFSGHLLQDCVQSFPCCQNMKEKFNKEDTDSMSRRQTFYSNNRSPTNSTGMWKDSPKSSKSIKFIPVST
T2 sequence (P30518 whole entry): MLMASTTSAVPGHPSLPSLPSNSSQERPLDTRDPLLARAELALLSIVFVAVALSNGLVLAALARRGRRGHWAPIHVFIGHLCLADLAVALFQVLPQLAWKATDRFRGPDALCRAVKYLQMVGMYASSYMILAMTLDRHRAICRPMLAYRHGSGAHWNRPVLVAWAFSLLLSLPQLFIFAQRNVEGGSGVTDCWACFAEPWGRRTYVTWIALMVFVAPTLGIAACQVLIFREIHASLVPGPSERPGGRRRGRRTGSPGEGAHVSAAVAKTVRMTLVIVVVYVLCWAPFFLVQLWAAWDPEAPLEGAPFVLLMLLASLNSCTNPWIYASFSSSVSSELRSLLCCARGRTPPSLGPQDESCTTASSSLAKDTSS

SMILES: CC1(CNC(=O)c2ccccc2-n2cnc(Cn3nc(-c4ccc(Cl)cc4)n(C[C@H](O)C(F)(F)F)c3=O)n2)CCCO1 (mixture of isomers) [Example 202, 2-[3-({3-(4-Chlorophenyl)-5-oxo-4-[(2S)-3,3,3-trifluoro-2-hydroxypropyl]-4,5-dihydro-1H-1,2,4-triazol-1-yl}methyl)-1H-1,2,4-triazol-1-yl]-N-{[2-methyltetrahydrofuran-2-yl]methyl}benzamide]
- IC50 (human V1a receptor): 0.0043 µM
- ratio IC50 hV2/hV1a (human V1a receptor): 0.9
- IC50 (human V2 receptor): 0.00405 µM

SMILES: CCC(C)NC(=O)c1ccccc1-n1cnc(Cn2nc(-c3ccc(Cl)cc3)n(C[C@H](O)C(F)(F)F)c2=O)n1 (mixture of isomers) [Example 204, N-[Butan-2-yl]-2-[3-({3-(4-chlorophenyl)-5-oxo-4-[(2S)-3,3,3-trifluoro-2-hydroxypropyl]-4,5-dihydro-1H-1,2,4-triazol-1-yl}methyl)-1H-1,2,4-triazol-1-yl]benzamide]
- IC50 (human V1a receptor): 0.00125 µM
- ratio IC50 hV2/hV1a (human V1a receptor): 92.0
- IC50 (human V2 receptor): 0.115 µM

SMILES: O=C(NC1CCOC1)c1ccccc1-n1cnc(Cn2nc(-c3ccc(Cl)cc3)n(C[C@H](O)C(F)(F)F)c2=O)n1 (mixture of isomers) [Example 208, 2-[3-({3-(4-Chlorophenyl)-5-oxo-4-[(2S)-3,3,3-trifluoro-2-hydroxypropyl]-4,5-dihydro-1H-1,2,4-triazol-1-yl}methyl)-1H-1,2,4-triazol-1-yl]-N-[tetrahydrofuran-3-yl]benzamide]
- IC50 (human V1a receptor): 0.0024 µM
- ratio IC50 hV2/hV1a (human V1a receptor): 39.8
- IC50 (human V2 receptor): 0.0955 µM

SMILES: CC1CCCC(NC(=O)c2ccccc2-n2cnc(Cn3nc(-c4ccc(Cl)cc4)n(C[C@H](O)C(F)(F)F)c3=O)n2)C1 (mixture of isomers) [Example 224, 2-[3-({3-(4-Chlorophenyl)-5-oxo-4-[(2S)-3,3,3-trifluoro-2-hydroxypropyl]-4,5-dihydro-1H-1,2,4-triazol-1-yl}methyl)-1H-1,2,4-triazol-1-yl]-N-(3-methylcyclohexyl)benzamide]
- IC50 (human V1a receptor): 0.0126 µM
- ratio IC50 hV2/hV1a (human V1a receptor): 11.5
- IC50 (human V2 receptor): 0.145 µM

SMILES: O=C(NC1CCOC1=O)c1ccccc1-n1cnc(Cn2nc(-c3ccc(Cl)cc3)n(C[C@H](O)C(F)(F)F)c2=O)n1 (mixture of isomers) [Example 231, 2-[3-({3-(4-Chlorophenyl)-5-oxo-4-[(2S)-3,3,3-trifluoro-2-hydroxypropyl]-4,5-dihydro-1H-1,2,4-triazol-1-yl}methyl)-1H-1,2,4-triazol-1-yl]-N-[(3S)-2-oxotetrahydrofuran-3-yl]benzamide]
- IC50 (human V1a receptor): 0.00305 µM
- ratio IC50 hV2/hV1a (human V1a receptor): 254.1
- IC50 (human V2 receptor): 0.775 µM

SMILES: COC1CCCN(C(=O)c2ccccc2-n2cnc(Cn3nc(-c4ccc(Cl)cc4)n(C[C@H](O)C(F)(F)F)c3=O)n2)C1 (mixture of isomers) [Example 269, 5-(4-Chlorophenyl)-2-{[1-(2-{[3-methoxypiperidin-1-yl]carbonyl}phenyl)-1H-1,2,4-triazol-3-yl]methyl}-4-[(2S)-3,3,3-trifluoro-2-hydroxypropyl]-2,4-dihydro-3H-1,2,4-triazol-3-one]
- IC50 (human V1a receptor): 0.0025 µM
- ratio IC50 hV2/hV1a (human V1a receptor): 422.0
- IC50 (human V2 receptor): 1.05 µM

SMILES: CC1SCCN1C(=O)c1ccccc1-n1cnc(Cn2nc(-c3ccc(Cl)cc3)n(C[C@H](O)C(F)(F)F)c2=O)n1 (mixture of isomers) [Example 270, 5-(4-Chlorophenyl)-2-{[1-(2-{[2-methyl-1,3-thiazolidin-3-yl]carbonyl}phenyl)-1H-1,2,4-triazol-3-yl]methyl}-4-[(2S)-3,3,3-trifluoro-2-hydroxypropyl]-2,4-dihydro-3H-1,2,4-triazol-3-one]
- IC50 (human V1a receptor): 0.0021 µM
- ratio IC50 hV2/hV1a (human V1a receptor): 685.7
- IC50 (human V2 receptor): 1.44 µM

SMILES: CN1CCC(N(C)C(=O)c2ccccc2-n2cnc(Cn3nc(-c4ccc(Cl)cc4)n(C[C@H](O)C(F)(F)F)c3=O)n2)C1 (mixture of isomers) [Example 274, 2-[3-({3-(4-Chlorophenyl)-5-oxo-4-[(2S)-3,3,3-trifluoro-2-hydroxypropyl]-4,5-dihydro-1H-1,2,4-triazol-1-yl}methyl)-1H-1,2,4-triazol-1-yl]-N-methyl-N-[1-methylpyrrolidin-3-yl]benzamide]
- IC50 (human V1a receptor): 0.022 µM
- ratio IC50 hV2/hV1a (human V1a receptor): 438.6
- IC50 (human V2 receptor): 9.65 µM

SMILES: CC1CCCN(C(=O)c2ccccc2-n2cnc(Cn3nc(-c4ccc(Cl)cc4)n(C[C@H](O)C(F)(F)F)c3=O)n2)C1C (mixture of isomers) [Example 275, 5-(4-Chlorophenyl)-2-[(1-{2-[(2,3-dimethylpiperidin-1-yl)carbonyl]phenyl}-1H-1,2,4-triazol-3-yl)methyl]-4-[(2S)-3,3,3-trifluoro-2-hydroxypropyl]-2,4-dihydro-3H-1,2,4-triazol-3-one]
- IC50 (human V1a receptor): 0.00255 µM
- ratio IC50 hV2/hV1a (human V1a receptor): 484.3
- IC50 (human V2 receptor): 1.24 µM

SMILES: CC1C(=O)NCCN1C(=O)c1ccccc1-n1cnc(Cn2nc(-c3ccc(Cl)cc3)n(C[C@H](O)C(F)(F)F)c2=O)n1 (mixture of isomers) [Example 280, 4-{2-[3-({3-(4-Chlorophenyl)-5-oxo-4-[(2S)-3,3,3-trifluoro-2-hydroxypropyl]-4,5-dihydro-1H-1,2,4-triazol-1-yl}methyl)-1H-1,2,4-triazol-1-yl]benzoyl}-3-methylpiperazin-2-one]
- IC50 (human V1a receptor): 0.0785 µM
- ratio IC50 hV2/hV1a (human V1a receptor): 129.3
- IC50 (human V2 receptor): 10.1 µM

SMILES: CC1COCCN1C(=O)c1ccccc1-n1cnc(Cn2nc(-c3ccc(Cl)cc3)n(C[C@H](O)C(F)(F)F)c2=O)n1 (mixture of isomers) [Example 282, 5-(4-Chlorophenyl)-2-{[1-(2-{[3-methylmorpholin-4-yl]carbonyl}phenyl)-1H-1,2,4-triazol-3-yl]methyl}-4-[(2S)-3,3,3-trifluoro-2-hydroxypropyl]-2,4-dihydro-3H-1,2,4-triazol-3-one]
- IC50 (human V1a receptor): 0.00235 µM
- ratio IC50 hV2/hV1a (human V1a receptor): 1000.0
- IC50 (human V2 receptor): 2.35 µM

SMILES: CC1CN(C(=O)c2ccccc2-n2cnc(Cn3nc(-c4ccc(Cl)cc4)n(C[C@H](O)C(F)(F)F)c3=O)n2)CCO1 (mixture of isomers) [Example 283, 5-(4-Chlorophenyl)-2-{[1-(2-{[2-methylmorpholin-4-yl]carbonyl}phenyl)-1H-1,2,4-triazol-3-yl]methyl}-4-[(2S)-3,3,3-trifluoro-2-hydroxypropyl]-2,4-dihydro-3H-1,2,4-triazol-3-one]
- IC50 (human V1a receptor): 0.00605 µM
- ratio IC50 hV2/hV1a (human V1a receptor): 1239.7
- IC50 (human V2 receptor): 7.5 µM

SMILES: CC(O)CNC(=O)c1ccccc1-n1cnc(Cn2nc(-c3ccc(Cl)cc3)n(C[C@H](O)C(F)(F)F)c2=O)n1 (mixture of isomers) [Example 292, 2-[3-({3-(4-Chlorophenyl)-5-oxo-4-[(2S)-3,3,3-trifluoro-2-hydroxypropyl]-4,5-dihydro-1H-1,2,4-triazol-1-yl}methyl)-1H-1,2,4-triazol-1-yl]-N-[2-hydroxypropyl]benzamide]
- IC50 (human V1a receptor): 0.00295 µM
- ratio IC50 hV2/hV1a (human V1a receptor): 21.9
- IC50 (human V2 receptor): 0.0645 µM

SMILES: O=C(NCC(O)CO)c1ccccc1-n1cnc(Cn2nc(-c3ccc(Cl)cc3)n(C[C@H](O)C(F)(F)F)c2=O)n1 (mixture of isomers) [Example 297, 2-[3-({3-(4-Chlorophenyl)-5-oxo-4-[(2S)-3,3,3-trifluoro-2-hydroxypropyl]-4,5-dihydro-1H-1,2,4-triazol-1-yl}methyl)-1H-1,2,4-triazol-1-yl]-N-[2,3-dihydroxypropyl]benzamide]
- IC50 (human V1a receptor): 0.00505 µM
- ratio IC50 hV2/hV1a (human V1a receptor): 277.2
- IC50 (human V2 receptor): 1.4 µM

SMILES: O=C(c1ccccc1-n1cnc(Cn2nc(-c3ccc(Cl)cc3)n(C[C@H](O)C(F)(F)F)c2=O)n1)N1CCC(O)C1 (mixture of isomers) [Example 298, 5-(4-Chlorophenyl)-2-{[1-(2-{[3-hydroxypyrrolidin-1-yl]carbonyl}phenyl)-1H-1,2,4-triazol-3-yl]methyl}-4-[(2S)-3,3,3-trifluoro-2-hydroxypropyl]-2,4-dihydro-3H-1,2,4-triazol-3-one]
- IC50 (human V1a receptor): 0.0033 µM
- ratio IC50 hV2/hV1a (human V1a receptor): 468.2
- IC50 (human V2 receptor): 1.54 µM
